This note sets out measurements from patent publication US20150315241A1, “Antibiotic Peptides” (priority 2007, published 2015).

One assay relates to E. coli D31. The class given is cell-based, Escherichia coli. In outline:
(§1)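 Peptides were serially diluted two-fold in 1% TSB to give final concentrations from 125 μg/mL to 60 ng/mL. Bacteria grown overnight in nutrient broth at 37° C. were added at 5×10^6 CFU/mL. Plates were incubated 20 hrs at 37° C. and absorbance at 595 nm recorded.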

In assay [1] the test system is S. enterica subsp. Enterica serovar. typhi G10215 ATCC 700408. The format is cell-based, Salmonella enterica. In outline: as §1
Another assay has as its system K. pneumonia 681. The format is cell-based, Klebsiella pneumoniae. On the procedure:
(§2) The minimal inhibition concentrations (MIC) of the apidaecin-derived peptides and peptide-derivatives were determined by a growth inhibition assay using a serial peptide dilution in sterilized round-bottom 96-well plates (polystyrene, U-bottom, Greiner Bio-One GmbH) with a final volume of 100 μL per well. The bacteria, e.g., E. coli BL21 A1, were grown in nutrient broth (NB, Carl Roth GmbH+Co. KG, Karlsruhe, Germany) at 37° C. over night. To each well of the 96-well plate, 50 μL of the overnight culture adjusted to 5×10^6 CFU/mL in 1% TSB were added. Lyophilized peptides and peptidomimetics were dissolved in 1% TSB (tryptic soy broth) or water to give a final concentration of 250 μg/mL. Fifty μL of the peptide or peptidomimetics solution were added to the first well of a row on the plate and mixed. Fifty μL of the first well containing the peptide solution were transferred to the second well, mixed and again 50 μL transferred to the next well and so on. Thereby, a two-fold dilution series was obtained starting at 250 μg/mL in the first well down to 120 ng/mL in the 12th well of a row giving a final peptide or peptidomimetics concentration from 125 μg/mL (well 1) to 60 ng/mL (well 12). Plates were incubated at 37° C. for 20 hrs. The absorbance was measured at 595 nm using a TECAN micro plate spectrophotometer (Tecan, Germany). All peptides and peptidomimetics were measured in triplicates. Sterilized water was used as a negative control.
(§3) The bacteria strains were tested: • Eschericha coli 1103, 10233, BL 21 AI, DC 2, • Klebsiella pneumoniae 681, • Micrococcus luteus ATCC 10240, • Mycobacterium vaccae • Bactillus subtillis 347.

Another assay concerns S. typhi S5. The format is cell-based, Salmonella typhi. In outline:
as §1

In the next assay the test system is M. luteus ATCC 10240. The class given is cell-based, Micrococcus luteus. In a few lines: (§4)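 Bacteria grown overnight in NB at 37° C. were adjusted to 5×10^6 CFU/mL in 1% TSB and mixed 1:1 with a two-fold peptide series (final 125 μg/mL–60 ng/mL). After 20 hrs at 37° C., A595 was read; triplicates.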
A further assay deals with E. coli 45849. The experiment in a line: Growth inhibition assay (MIC). As to conditions: multidrug resistant strain; 1% TSB, 37° C., 20 hrs. The format is cell-based, Escherichia coli. In a few lines: as §1
The next assay has as its system E. coli 10233. The class given is cell-based, Escherichia coli. As for the experimental part:
as §2, §3

A further assay relates to B. subtilis 347. The format is cell-based, Bactillus subtillis. As for the experimental part:
as §2, §3

In another assay the test system is K. Pneumonia 123132. The experiment in a line: Growth inhibition assay (MIC). To be noted: multidrug resistant strain; 1% TSB, 37° C., 20 hrs. The format is cell-based, Klebsiella pneumoniae. In a few lines:
as §1

The test system of assay [2] is K. Pneumonia K6, ATCC 700603. As to the kind of experiment: Growth inhibition assay (MIC). The format is cell-based, Klebsiella pneumoniae. To be noted: multidrug resistant strain; 1% TSB, 37° C., 20 hrs. In a few lines:
as §1

The test system of a further assay is E. coli BL 21 AI. As to the kind of experiment: Growth inhibition assay (MIC). The class given is cell-based, Escherichia coli. To be noted: 1% TSB, 37° C., 20 hrs. In outline:
as §4

In a further assay the test system is E. coli 1103. The class given is cell-based, Escherichia coli. As for the experimental part: as §2, §3
Setting [3] is: multidrug resistant strain, 1% TSB, 37° C., 20 hrs.

≈ marks a conversion by molar mass, not a printed value. Like-named read-outs stand apart in the source and are kept apart here. Where a SMILES comes first, the peptide text is derived from it. [ ]: non-standard residue; d: D form. The star is where a group is joined. NMeL = CN[C@@H](CC(C)C)C(=O)O; Orn = NCCC[C@H](N)C(=O)O; For = O=C*

Consider 85 (GNNRPVYIPQPRPPHPRL) [compound 85], for which the “MIC E. coli D31” value in the assay with E. coli D31 (setting [3]) is 16 mg/L. For the same compound, the “MIC S. enterica subsp. Enterica serovar. typhi G10215 ATCC 700408” value in assay [1] (setting [3]) was 0.5 mg/L. For the same compound, the “MIC K. pneumonia 681” value against K. pneumonia 681 (1% TSB, 37° C., 20 hrs) turned out to be 31.25 mg/L. Moreover, the “MIC S. typhi S5” value against S. typhi S5 (setting [3]) was 0.5 mg/L. Besides, the “MIC M. luteus ATCC 10240” value in the assay on M. luteus ATCC 10240 (1% TSB, 37° C., 20 hrs) is 15.63 mg/L. Also, in the assay on E. coli 45849, the “MIC E. coli 45849” value was determined as 2 mg/L. Moreover, in the assay on E. coli 10233 (1% TSB, 37° C., 20 hrs), the “MIC E. coli 10233” value is 1.95 mg/L. Moreover, in the assay on B. subtilis 347 (1% TSB, 37° C., 20 hrs), the “MIC B. subtilis 347” value is above 125 mg/L. Besides, the “MIC K. Pneumonia 123132” value with K. Pneumonia 123132 came out at 16 mg/L. Also, in assay [2], the “MIC K. Pneumonia K6, ATCC 700603” value was determined as 64 mg/L. The “MIC E. coli BL 21 AI” value against E. coli BL 21 AI was 0.24 mg/L.

Consider “135 (PEG3000-[Orn]NNRPVYIPRPRPPHPRL-NH2) [compound 135]”, for which the “MIC K. pneumonia 681” value in the assay on K. pneumonia 681 (1% TSB, 37° C., 20 hrs) is above 125 mg/L. Moreover, in the assay on M. luteus ATCC 10240 (1% TSB, 37° C., 20 hrs), the “MIC M. luteus ATCC 10240” value was found to be 8 mg/L. Also, the “MIC E. coli 10233” value against E. coli 10233 (1% TSB, 37° C., 20 hrs) was above 125 mg/L. Moreover, the “MIC E. coli 1103” value in the assay on E. coli 1103 (1% TSB, 37° C., 20 hrs) was above 125 mg/L. Besides, the “MIC B. subtilis 347” value against B. subtilis 347 (1% TSB, 37° C., 20 hrs) is above 125 mg/L. The “MIC E. coli BL 21 AI” value with E. coli BL 21 AI was above 125 mg/L.

Consider `CC[C@H](C)[C@H](NC(=O)[C@H](Cc1ccc(O)cc1)NC(=O)[C@@H](NC(=O)[C@@H]1CCCN1C(=O)[C@H](CCCNC(=N)N)NC(=O)[C@H](CC(N)=O)NC(=O)[C@H](CC(N)=O)NC(=O)CN)C(C)C)C(=O)N1CCC[C@H]1C(=O)N[C@@H](CCC(N)=O)C(=O)N1CCC[C@H]1C(=O)N[C@@H](CCCNC(=N)N)C(=O)N1CCC[C@H]1C(=O)N1CCC[C@H]1C(=O)N[C@@H](Cc1c[nH]cn1)C(=O)N1CCC[C@H]1C(=O)N[C@@H](CCCNC(=N)N)C(=O)N(C)[C@@H](CC(C)C)C(N)=O` [compound 33] (H-GNNRPVYIPQPRPPHPR[NMeL]-NH2), for which the “MIC E. coli D31” value against E. coli D31 (D31, 20 h) came to 32 mg/L (≈ 15.1 µM). In assay [1] (ATCC 700408, 20 h), the “MIC S. enterica subsp. Enterica serovar. typhi G10215 ATCC 700408” value came to 8 mg/L (≈ 3.77 µM). Besides, the “MIC K. pneumonia 681” value in the assay with K. pneumonia 681 (20 h) is above 125 mg/L. Also, in the assay with M. luteus ATCC 10240 (ATCC 10240, 20 h), the “MIC M. luteus ATCC 10240” value worked out at 31.25 mg/L (≈ 14.7 µM). The “MIC E. coli 10233” value in the assay with E. coli 10233 (10233, 20 h) was 15.63 mg/L (≈ 7.37 µM). For the same compound, the “MIC E. coli 1103” value against E. coli 1103 (1103, 20 h) was 62.5 mg/L (≈ 29.5 µM). For the same compound, the “MIC B. subtilis 347” value with B. subtilis 347 (347, 20 h) was above 125 mg/L. For the same compound, in [2], the “MIC K. Pneumonia K6, ATCC 700603” value was above 128 mg/L. The “MIC E. coli BL 21 AI” value in the assay on E. coli BL 21 AI worked out at 15.63 mg/L (≈ 7.37 µM).

For `CC[C@H](C)[C@H](NC(=O)[C@H](Cc1ccc(O)cc1)NC(=O)[C@@H](NC(=O)[C@@H]1CCCN1C(=O)[C@H](CCCNC(=N)N)NC(=O)[C@H](CC(N)=O)NC(=O)[C@H](CC(N)=O)NC(=O)CNC=O)C(C)C)C(=O)N1CCC[C@H]1C(=O)N[C@@H](CCC(N)=O)C(=O)N1CCC[C@H]1C(=O)N[C@@H](CCCNC(=N)N)C(=O)N1CCC[C@H]1C(=O)N1CCC[C@H]1C(=O)N[C@@H](Cc1c[nH]cn1)C(=O)N1CCC[C@H]1C(=O)N[C@@H](CCCNC(=N)N)C(=O)N[C@@H](CC(C)C)C(N)=O` [compound 84] (For-GNNRPVYIPQPRPPHPRL-NH2), the “MIC E. coli D31” value in the assay with E. coli D31 (D31, 20 h) was determined as 1 mg/L (≈ 0.468 µM). The “MIC S. enterica subsp. Enterica serovar. typhi G10215 ATCC 700408” value in assay [1] (ATCC 700408, 20 h) worked out at 0.25 mg/L (≈ 0.117 µM). Moreover, the “MIC K. pneumonia 681” value with K. pneumonia 681 (20 h) was 62.5 mg/L (≈ 29.3 µM). Also, the “MIC S. typhi S5” value against S. typhi S5 (S5, 20 h) amounted to 0.25 mg/L (≈ 0.117 µM). For the same compound, in the assay with M. luteus ATCC 10240 (ATCC 10240, 20 h), the “MIC M. luteus ATCC 10240” value was 3.91 mg/L (≈ 1.83 µM). Also, the “MIC E. coli 45849” value in the assay with E. coli 45849 was determined as 0.5 mg/L (≈ 0.234 µM). The “MIC E. coli 10233” value with E. coli 10233 (10233, 20 h) is 1.95 mg/L (≈ 0.913 µM). For the same compound, the “MIC B. subtilis 347” value with B. subtilis 347 (347, 20 h) was above 125 mg/L. In the assay on K. Pneumonia 123132, the “MIC K. Pneumonia 123132” value is 32 mg/L (≈ 15 µM). Further, the “MIC K. Pneumonia K6, ATCC 700603” value in assay [2] turned out to be 32 mg/L (≈ 15 µM). Further, the “MIC E. coli BL 21 AI” value in the assay with E. coli BL 21 AI came out at 1.95 mg/L (≈ 0.913 µM).
